The subject of experiment [1] is MDA-MB-231 breast cancer cells. Put plainly: Matrigel invasion assay. The following applies: antibody 20 μg/ml, LY255283 10 μM, 48 h. The format is cell-based, human. The procedure:
LF-BLT2 IgG Ab were also tested to determine if they had anti-BLT2-neutralizing effect in a cancer cell invasion assay. The migration of MDA-MB-231 breast cancer cells through Matrigel matrix gel in the presence of anti-LF-BLT2 was examined. The upper chamber of transwells (8.0-μm membrane pores; Costar) were coated with 2.5 μg/ml Matrigel matrix gel (BD Biosciences) and incubated at 37° C. for 2 hr. A total of 5×10^4 cells in 100 μl of medium with 0.5% FBS were added to the upper chamber and allowed to migrate toward the bottom chamber, which contained medium with 10% FBS as a chemoattractant. MDA-MB-231 cells were stopped at 48 hr. Cells on the top surface of the membranes were removed using a cotton swab, and cells on the underside were fixed in methanol and stained with hematoxylin and eosin (H&E).

The subject of experiment [2] is PWR-1E cells. Put plainly: cell counting with trypan blue. The following applies: 1 μM and 5 μM, serum free RPMI 1640. The format is cell-based. On the procedure: The effect of LY255283 was observed by counting of cell number. The cells were grown in 6-well cluster dishes to 70% confluence with 10% FBS-supplemented medium. At day 0, the medium was replaced with serum free RPMI 1640 and cells were stimulated with DMSO or 1 μM and 5 μM LY255283. The cells were harvested at various intervals. Cells were washed with PBS and collected by brief trypsinization. Total cell number was determined by counting each sample in duplicate with a hemocytometer using trypan blue dye. The cells treated with LY255283 in serum free RPM11640 were harvested at various intervals. […] In contrast, PWR-1 E cells which expressed few level of BLT2 were not affected by LY255283.

For the next experiment, the system named is Rat2-HO6 cells. Kind of experiment: metastasis survival analysis (Kaplan-Meier). In kind it is in vivo, nude mice. Conditions: 2.5 mg/kg intraperitoneal, 7 weeks. The procedure:
All experimental animals used in this study were treated according to guidelines approved by the Institutional Animal Care and Use Committee of Korea University. Female nude mice (Charles River, Wilmington, Mass.), four-weeks-old at the time of injection, were used in the experimental metastasis assay. Rat-2, Rat2-HO6, and Rat2-BLT2 cells (5×10^5 cells) were prepared for injection from cultures in logarithmic growth at the time of harvest. The cells were briefly treated with 0.025% trypsin and 0.1% EDTA in Hanks' balanced salt solution and quickly removed from trypsin by centrifugation, resuspended in saline containing LTB4, and injected within 1 hr in 0.1 ml into the lateral tail vein with a 26-gauge needle. For inhibitor experiments, U75302 and LY255283 (0.25 mg/kg for BLT1 antagonist and 2.5 mg/kg for BLT2 antagonist) was injected intraperitoneally 3 and 5 days after injection of cells that were pretreated with inhibitors. The mice were maintained under aseptic barrier conditions until they were sacrificed at 21 days after cell injection (n=8, each group) to identify pulmonary metastasis or to investigate the mortality of mice at the end of the experiment (7 weeks) (n=8, each group). Metastasis survival was analyzed in Kaplan-Meyer plots.

Experiment [3] has as its system 253J-BV bladder cancer cell. Kind of experiment: mitochondrial membrane potential (JC-1, flow cytometry). In kind it is cell-based, human. Conditions: 48 hr. On the procedure: Mitochondrial damage is important to the apoptosis affected by the caspase-9 pathway. To evaluate the effect of LY255283 on the mitochondria membrane potential (MMP), cell were pretreated with the fluorescent mitochondria specific cationic dye, JC-1, and changes in membrane potential were measured by flow cytometry. Cells grown in 6 well-plates for 24 hr washed PBS and incubated in RPMI 1640 with 0.5% FBS containing different concentrations of LY255283 and U75302 for 48 hr. After cells were treated with 5 μg/ml of JC-1 for 30 min. Then removal of JC-1, washed with PBS, harvested by trypsinization, and resuspended in PBS. Sample was measured at 530 nm (FL-1 green) and 590 nm (FL-2 red) using a flow cytometry. […] And because of the loss of mitochondrial membrane potential in a LY255283 treated cells, it was speculated that caspase may play an essential role in the process of apoptosis.

The test system of experiment [4] is PWR-1E cells. Put plainly: MTT assay, cell viability. In kind it is cell-based. Conditions: increasing concentration, 48 hr, serum free RPMI 1640. On the procedure:
The effect of LY255283, BLT2 antagonist, on cell viability was examined by MTT assay. PWR-1E cells were seeded at a density of 1.0×10^4 cells/well and LNCaP cells were seeded at a density of 1.5×10^4 cells/well in 96-well culture dishes. After 36 hr, the medium was replaced with serum free RPMI 1640 and cells were stimulated with DMSO or LY255283 of increasing concentration. MTT (1 mg/mu) was added at 48 hr after LY255283 treatment and after 4 hr of further incubation the medium was replaced with DMSO. Then cells were incubated at room temperature for 10 min. The spectrophotometric absorbance of the samples was determined by using Ultra Multifunctional Microplate Reader at 540 nm. LNCaP cells and PWR-1E cells were stimulated with LY255283 of various concentration in serum free RPM11640.

Structures are written as SMILES.

As for `CCc1cc(C(C)=O)c(O)cc1OCCCCCC(C)(C)c1nnn[nH]1` [LY255283, 1-[5-ethyl-2-hydroxy-4-[[6-methyl-6-(1H-tetrazol-5-yl)heptyl]oxy]phenyl]-ethanone], the invasion activity result in experiment [1] is recorded as “showed inhibitory activity”. For the same compound, the “number of PWR-1E cells” value with PWR-1E cells [2] is on record as “not affected”. Further, in the experiment with Rat2-HO6 cells, the “survival of mouse injected with Ras-oncogene expressing transformed cells” value was “extended the survival”. The mitochondria potential result in experiment [3] (10 μM) is listed as “drop in mitochondria potential”. In experiment [3] (JC-1, 10 μM), the “increase of green fluorescence (FL-1) compare with control cells” value is on record as “about 2.5 fold”. Further, the “PWR-1E cell viability (MTT)” value in the experiment on PWR-1E cells [4] was “no effect”.

Values taken from patent US8518889B2, “Method of treating cancer with antibodies against long-form leukotriene B4 receptor BLT2” (Korea University Research & Business Foundation, priority 2007, dated 2013).
